Source: patent US4140767A, “Somatostatin analogs” (Merck & Co., Inc., priority 1977, dated 1979)

Key:
plasma insulin = experiment: Inhibition of insulin: lowering of portal vein insulin in anesthetized rats; format: in vivo, rat; conditions: anesthetized male Sprague-Dawley rats, external jugular vein administration, portal vein blood after 5 minutes; somatostatin = 1; range in brackets
Description: (§1) The relative potencies of somatostatin analogs on the lowering of plasma insulin and glucagon are determined by the following method:
(§2) Analogs of somatostatin were […] to somatostatin in their ability to lower the levels of portal vein glucagon and insulin in anesthetized rats. Male Sprague-Dawley rats (Charles River CD) weighing 160-200 grams were anesthetized with urethane (150 mg./100 gm.) Saline or peptides were administered via the external jugular vein. After 5 minutes the portal vein was exposed and blood was collected via syringes containing 3 mg. EDTA and placed in chilled tubes containing 100 μl. of Trasylol (obtained from FBA Pharmaceuticals) for subsequent hormone analysis. Plasma levels of glucagon were determined by the method of Faloona, G. R., and Unger, R. H. "Glucagon" in Methods of Hormone Radioimmunoassay, eds. […] Plasma levels of insulin were determined by a modification of the procedure of Herbert, V., Lau, K. S., Gottlieb, C. […]
(§3) Doses were randomized between groups of animals (6 rats/group). Potency values were determined by four, six, or 8 point bioassays with somatostatin as the reference standard. Relative potency values were calculated by a relative potency formula for parallel line bioassays as described in Finney, D. J. Statistical Method in Biological Assay (Charles Griffin and Co., Ltd., London) Chap. […]

plasma glucagon = experiment: Inhibition of glucagon: lowering of portal vein glucagon in anesthetized rats; format: in vivo, rat; conditions: anesthetized male Sprague-Dawley rats, external jugular vein administration, portal vein blood after 5 minutes; somatostatin = 1; range in brackets
Description: as §1, §2, §3

growth hormone release = experiment: Inhibition of pentobarbital stimulated growth hormone release in vivo; parameters: species or system rat; conditions: rats, sodium pentobarbitol 17 mg./Kg., analog subcutaneously, blood after 15 minutes; somatostatin = 1; range in brackets
Description: Somatostatin analogs were compared to somatostain in their ability to inhibit the release of growth hormone in pentobarbital stimulated rats; a modification of the procedure of Brazeau et al. Endocrinology, 94, 184-187 (1974) was empaloyed. Rats were lightly etherized and sodium pentobarbitol (17 mg./Kg.) was injected into the exposed Saphenous vein; somatostatin or analog was simultaneously injected subcutaneously. After 15 minutes the animals were bled via the orbital sinus and blood collected for subsequent growth hormone analysis.
(§4) Doses were randomized between groups of animals (6 rats/group). Potency values were determined by four, six, or 8 point bioassays with somatostatin as the reference standard. Relative potency values were calculated by a relative potency formula for parallel line bioassays as described in Finney, D. J. Statistical Method in Biological Assay (Charles Griffin and Co., Ltd., London) Chap. 4 pp. 99-138 (1964).

Rat pituicytes = experiment: Growth hormone inhibition in vitro; format: cell-based; conditions: rat pituicytes after 4 days in culture, 4 hours incubation; somatostatin = 1; range in brackets
Description: Rat pituicytes were isolated according to the procedures of Vale and Grant "In vitro Pituitary Hormone Secretion Assay for Hypophysiotropic Substances" in Methods in Enzymology. Vo. XXXVII, eds. O'Malley, B. W. and Hardman, J. G. (Academic Press, Inc., New York) pp. 5-93 (1975).
After 4 days in culture, the cells were washed and incubated for 4 hours in Dulbecco-modified Eagle's medium in the presence or absence of graded doses of each analog or somatostatin. The medium was then collected for subsequent growth hormone determination by a double antibody radioimmunoassay for rat growth hormone.
as §4

C[C@H](N)C(=O)NCC(=O)N[C@H]1CSSC[C@@H](C(=O)O)NC(=O)[C@H](CO)NC(=O)[C@H]([C@@H](C)O)NC(=O)[C@H](Cc2ccccc2)NC(=O)[C@H]([C@@H](C)O)NC(=O)[C@H](CCCCN)NC(=O)[C@H](Cc2c[nH]c3ccccc23)NC(=O)[C@H](Cc2ccccc2)NC(=O)[C@H](Cc2ccccc2)NC(=O)[C@H](CC(N)=O)NC(=O)[C@H](CCCCN)NC1=O [Somatostatin]
1: Inhibition of Insulin; potency relative to somatostatin (plasma insulin) | Inhibition of Glucagon; potency relative to somatostatin (plasma glucagon) | Inhibition of Pentobarbital Stimulated Growth Hormone Release In Vivo; potency relative to somatostatin (growth hormone release) | Growth Hormone Inhibition In Vitro; potency relative to somatostatin (Rat pituicytes)
